Data as given in publication PMC6173696, “Structural properties of a haemophore facilitate targeted elimination of the pathogen Porphyromonas gingivalis” (Nature Communications, 2018).

What was measured:
[1] = system: P. gingivalis W83 within gingival H413 epithelial cells; test: Intracellular killing assay in infected H413 epithelial cells; format: cell-based, Porphyromonas gingivalis; details: H413 cells infected by W83, CFU count
Excerpt: Fig. 5 A prototype DPIX-conjugated antibiotic binds HusA and inhibits P. gingivalis. a The chemical structure of the deuteroporphyrin-lysine-metronidazole adduct, P8. b NMR signal intensity changes (black) and ^1H^N CSPs (red/green) for HusA upon addition of P8 (measured from ^15N-HSQC spectra shown in Supplementary Figure 21). c In silico docking of P8 to the energy minimized structure of HusA (conformer set 1), with residues experiencing NMR signal loss (orange) or CSPs (red/green) mapped to the structure (colouring as described in Fig. 2d). d Scaled and corrected fluorescence at 335 nm during titration of 1 μM of HusA with increasing concentrations of P8, haemin or DPIX. e Comparison of P8 inhibitory effect towards P. gingivalis wild-type W83 and husA mutants using checkerboard analysis. Serial dilutions of antibiotics (horizontal axis) were applied to a 96-well plate with different P. gingivalis strains (vertical axis). Serial dilutions of DPIX were also supplemented into wild-type W83 group to evaluate the competitive effect against P8. Absorption at OD600 of each well was recorded after 24 h of incubation. The OD600 of each strain grown in the absence of antibiotics was defined as 100% growth, which was applied to normalise the reading collected from other wells. […] Recovered bacteria were determined by CFU count. […]

[2] = biological target: T1, HusA L123N-V124N (Porphyromonas gingivalis, UniProt Q7MSY3, L123N/V124N); test: Tryptophan fluorescence quenching assay, HusA mutant L123N-V124N; format: binding; details: mutant LV123/4NN
T1 sequence (Q7MSY3 24-218 L123N/V124N): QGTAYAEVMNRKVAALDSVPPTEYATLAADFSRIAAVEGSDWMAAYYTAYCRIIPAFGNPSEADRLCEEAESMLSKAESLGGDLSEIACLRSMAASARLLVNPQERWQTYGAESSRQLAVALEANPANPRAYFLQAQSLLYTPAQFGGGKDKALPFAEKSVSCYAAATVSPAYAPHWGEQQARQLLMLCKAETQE
Method: The quenching of intrinsic tryptophan fluorescence of HusA upon porphyrin additions was measured using a Carey Eclipse Fluorescence Spectrophotometer (Agilent) set to a photo multiplier effect (PME) of 850. A 5-mm path length quartz cuvette was used and all spectra were acquired at room temperature. Excitation was set to 295 nm and emission was measured from 300 nm to 500 nm using excitation/emission slit widths of 5 nm. Binding assays were performed at a protein concentration of 1 μM HusA in standard buffer at a working volume of 0.5 mL. […] The fluorescence quenching of HusA by PPIX was investigated in a similar manner with the following difference: the fluorescence intensities of ten 1 μM HusA samples were measured each with increasing amounts of PPIX after a 2-h incubation period to allow equilibrium to be reached. See Supplementary Methods for correction for inner filter effect and curve fitting. […]
Correction of inner filter effect and curve fitting in tryptophan fluorescence quenching assays The concentration of NATA was chosen such that the raw fluorescence intensity was similar to the 10 uM concentrations of HusA and mutants used. […] Fluorescence intensity was scaled with respect to the starting florescence and corrected for the inner filter effect. Fluorescence at 335 nm was used to fit binding curves. […]

Row | SMILES | killing of intracellular P. gingivalis [1] | reduction of haemin affinity compared to wild-type [2]
1 | CC1=Cc2cc3[nH]c(cc4nc(cc5[nH]c(cc1n2)cc5C)C(C)=C4CCC(=O)N[C@@H](CCCCNC(=O)OC(C)(C)C)C(=O)NCCn1c([N+](=O)[O-])cnc1C)c(CCC(=O)O)c3C [P8] | more effective than metronidazole | 
2 | C=CC1=C(C)c2cc3[nH]c(cc4nc(cc5[nH]c(cc1n2)c(C)c5CCC(=O)O)C(CCC(=O)O)=C4C)c(C)c3C=C.[Fe+3] [haemin] |  | > 50%
